Experimental data: ChEMBL document CHEMBL1201862, “PubChem BioAssay data set” (2004)
The source made the active and inactive calls.

Columns and labels:
Vero [1] = test: West Nile virus CPE inhibition, SAR follow-up, cell-based, synthesized analogs (AID 2238); format: functional; settings: Chlorocebus sabaeus
[2] = biological target: T1, Ubiquitin-conjugating enzyme E2 N (Homo sapiens, UniProt P61088); format: functional;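 further: Dose-response confirmation in a TR-FRET assay detecting UBC13-driven polyubiquitin chain formation, inhibition measured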
T1 sequence (P61088 whole entry): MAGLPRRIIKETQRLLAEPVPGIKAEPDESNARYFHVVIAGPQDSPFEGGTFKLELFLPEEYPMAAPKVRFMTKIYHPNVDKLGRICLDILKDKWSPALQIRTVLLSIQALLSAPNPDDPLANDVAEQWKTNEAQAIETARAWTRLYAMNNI

Vero [3] = test: Vero E6 cell cytotoxicity, SAR follow-up, cytotoxicity control for West Nile virus antiviral project, synthesized analogs (AID 2244); format: functional; settings: Chlorocebus sabaeus
[4] = A Cell Based Assay for the Identification of Probe candidate Compounds with Anti- Venezuelan Equine Encephalitis virus. [Related pubchem assays: 2409, 2419, 1621, 2238, 2405, 2024, 2065, 2402, 2414, 1635, 1650, 2244 ]; format: functional
Vero [5] = test: cytotoxicity of synthesized analogs in Vero 76, SAR follow-up, cytotoxicity control for West Nile virus antiviral project, Vero 76 cells (AID 2414); format: functional; settings: Chlorocebus sabaeus
Vero [6] = test: cytotoxicity of synthesized analogs in Vero cells, SAR follow-up, cytotoxicity control for West Nile virus antiviral project, cell-based, set II (AID 2402); format: functional; settings: Chlorocebus sabaeus
[7] = biological target: E3 ubiquitin-protein ligase Mdm2/Protein Mdm4 (Homo sapiens, UniProt O15151+Q00987); test: Mdm2-MdmX interaction inhibitors, dose response, luminescence detection (AID 504593); format: functional
[8] = cytotoxicity in HEK-293T cells, dose response, cytotoxicity control for TCR NF-kB inhibitor project, luminescence, T-cell screen hits (AID 489026); format: functional, cell-based;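 further: cells exposed to compound about 14 hours before the viability readout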
[9] = biological target: Glyceraldehyde-3-phosphate dehydrogenase (Homo sapiens, UniProt P04406)
[10] = biological target: Alkaline phosphatase, placental type (Homo sapiens, UniProt P05187); test: PLAP enzyme inhibitors, confirmation, biochemical, luminescence (AID 1512); format: functional
T-cell = test: inhibitors of CD8+ T cell–vesicle binding, dose response, mouse 2C CD8+ T cells, flow cytometry (AID 485284); format: functional
Hexokinase = Hexokinase (Trypanosoma brucei, UniProt Q38C41); test: Confirmation assay for inhibitors of Trypanosoma brucei hexokinase 1-Analogue-first series. [Related pubchem assays (depositor defined):AID1430, AID1632, AID2516, AID2560, AID2579, AID2600, AID449725, AID492951]; format: functional
Trypsin = Trypsin (Sus scrofa, UniProt P00761); test: porcine trypsin inhibitors, dose response, selectivity assay for Rce1 protease inhibitor project, biochemical, quenched peptide fluorescence, cherry-pick (AID 488789)
CAAX prenyl protease 2 = CAAX prenyl protease 2 (Saccharomyces cerevisiae S288c, UniProt Q03530); format: biochemical
Sequence of CAAX prenyl protease 2 (Q03530 whole entry): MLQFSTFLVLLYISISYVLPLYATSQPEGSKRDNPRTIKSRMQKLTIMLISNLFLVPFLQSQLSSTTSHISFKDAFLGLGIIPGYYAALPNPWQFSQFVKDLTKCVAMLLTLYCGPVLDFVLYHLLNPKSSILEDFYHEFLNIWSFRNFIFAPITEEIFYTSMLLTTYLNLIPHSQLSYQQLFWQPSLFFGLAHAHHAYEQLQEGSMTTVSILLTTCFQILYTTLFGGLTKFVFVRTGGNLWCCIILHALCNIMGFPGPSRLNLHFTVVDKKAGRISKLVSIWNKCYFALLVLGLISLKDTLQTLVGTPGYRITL

Sequence of Glyceraldehyde-3-phosphate dehydrogenase (P04406 whole entry): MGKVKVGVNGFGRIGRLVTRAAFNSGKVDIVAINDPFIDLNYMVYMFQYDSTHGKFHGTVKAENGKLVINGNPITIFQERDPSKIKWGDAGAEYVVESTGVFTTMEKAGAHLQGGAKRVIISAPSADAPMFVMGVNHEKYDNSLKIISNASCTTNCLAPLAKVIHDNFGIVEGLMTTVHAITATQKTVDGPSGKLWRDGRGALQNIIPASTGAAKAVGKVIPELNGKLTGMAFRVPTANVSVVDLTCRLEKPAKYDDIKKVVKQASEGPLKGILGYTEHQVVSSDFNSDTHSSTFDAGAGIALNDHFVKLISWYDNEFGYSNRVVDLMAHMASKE
Sequence of Trypsin (P00761 whole entry): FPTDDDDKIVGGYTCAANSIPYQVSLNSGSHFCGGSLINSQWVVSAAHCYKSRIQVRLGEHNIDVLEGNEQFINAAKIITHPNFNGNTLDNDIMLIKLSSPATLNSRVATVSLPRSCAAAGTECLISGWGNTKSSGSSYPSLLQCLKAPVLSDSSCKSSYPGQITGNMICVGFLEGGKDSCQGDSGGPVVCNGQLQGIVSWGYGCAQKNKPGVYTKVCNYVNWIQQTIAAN
Sequence of E3 ubiquitin-protein ligase Mdm2/Protein Mdm4 (Q00987 whole entry): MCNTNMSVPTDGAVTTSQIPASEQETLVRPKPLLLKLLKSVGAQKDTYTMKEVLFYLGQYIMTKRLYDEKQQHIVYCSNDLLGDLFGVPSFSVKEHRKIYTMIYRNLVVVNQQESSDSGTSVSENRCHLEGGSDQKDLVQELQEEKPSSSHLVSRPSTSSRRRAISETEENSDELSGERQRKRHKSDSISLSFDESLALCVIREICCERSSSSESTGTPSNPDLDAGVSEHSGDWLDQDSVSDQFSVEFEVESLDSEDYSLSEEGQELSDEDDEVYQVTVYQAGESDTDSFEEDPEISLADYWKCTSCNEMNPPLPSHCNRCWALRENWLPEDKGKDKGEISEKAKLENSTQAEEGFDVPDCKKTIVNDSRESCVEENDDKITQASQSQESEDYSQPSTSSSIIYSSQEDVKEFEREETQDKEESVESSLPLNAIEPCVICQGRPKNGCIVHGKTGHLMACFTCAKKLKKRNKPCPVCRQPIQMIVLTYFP
Sequence of E3 ubiquitin-protein ligase Mdm2/Protein Mdm4 (O15151 whole entry): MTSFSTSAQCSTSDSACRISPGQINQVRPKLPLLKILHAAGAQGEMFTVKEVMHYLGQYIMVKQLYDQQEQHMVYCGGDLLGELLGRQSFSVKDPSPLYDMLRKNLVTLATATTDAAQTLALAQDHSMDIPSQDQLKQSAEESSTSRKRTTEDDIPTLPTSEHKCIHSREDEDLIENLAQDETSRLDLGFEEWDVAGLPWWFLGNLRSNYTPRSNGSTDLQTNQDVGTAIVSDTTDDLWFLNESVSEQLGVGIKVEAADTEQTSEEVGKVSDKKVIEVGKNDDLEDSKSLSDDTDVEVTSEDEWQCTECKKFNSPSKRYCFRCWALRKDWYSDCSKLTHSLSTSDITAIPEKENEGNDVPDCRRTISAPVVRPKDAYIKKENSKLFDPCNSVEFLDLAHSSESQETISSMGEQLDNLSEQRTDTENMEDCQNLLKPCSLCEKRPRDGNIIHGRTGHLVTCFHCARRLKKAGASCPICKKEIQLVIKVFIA
Sequence of Alkaline phosphatase, placental type (P05187 whole entry): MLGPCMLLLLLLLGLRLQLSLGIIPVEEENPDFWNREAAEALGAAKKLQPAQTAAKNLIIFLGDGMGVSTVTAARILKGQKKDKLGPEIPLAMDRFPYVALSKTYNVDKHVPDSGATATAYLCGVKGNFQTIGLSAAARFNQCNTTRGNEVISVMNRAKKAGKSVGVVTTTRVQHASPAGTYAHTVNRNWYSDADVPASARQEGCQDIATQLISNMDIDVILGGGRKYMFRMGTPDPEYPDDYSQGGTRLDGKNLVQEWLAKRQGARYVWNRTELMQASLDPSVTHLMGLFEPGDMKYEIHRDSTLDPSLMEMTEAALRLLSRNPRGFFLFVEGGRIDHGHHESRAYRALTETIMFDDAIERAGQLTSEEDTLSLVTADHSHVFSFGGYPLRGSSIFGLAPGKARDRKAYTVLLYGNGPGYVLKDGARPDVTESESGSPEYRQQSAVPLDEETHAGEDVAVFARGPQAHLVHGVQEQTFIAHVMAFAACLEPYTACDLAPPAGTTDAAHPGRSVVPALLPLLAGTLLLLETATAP
Sequence of Hexokinase (Q38C41 whole entry): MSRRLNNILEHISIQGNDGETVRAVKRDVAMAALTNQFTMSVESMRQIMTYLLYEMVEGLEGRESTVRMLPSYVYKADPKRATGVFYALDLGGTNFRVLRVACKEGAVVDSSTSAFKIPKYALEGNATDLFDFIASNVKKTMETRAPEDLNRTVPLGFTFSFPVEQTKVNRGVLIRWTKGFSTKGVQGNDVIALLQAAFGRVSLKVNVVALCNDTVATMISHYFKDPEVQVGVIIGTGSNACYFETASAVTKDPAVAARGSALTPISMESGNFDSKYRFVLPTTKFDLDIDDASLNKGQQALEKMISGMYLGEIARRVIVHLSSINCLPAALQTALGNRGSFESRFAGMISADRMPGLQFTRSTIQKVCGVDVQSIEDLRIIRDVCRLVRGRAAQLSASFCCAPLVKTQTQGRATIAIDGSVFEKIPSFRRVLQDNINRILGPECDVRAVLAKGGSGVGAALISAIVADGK

CCCN1CCN(CCCNC(=O)c2cc3c(s2)-c2c(C)cccc2OC3)CC1
IC50 (Vero [1]): > 40 µM (active)
IC50 [2]: > 20 µM (inactive)
CC50 (Vero [3]): 12.4 µM (active)
IC50 [4]: 10.4 µM (active)
CC50 (Vero [5]): 28.4 µM (active)
CC50 (Vero [6]): 12.3 µM (active)

CCOC(=O)c1ccc(Nc2nc(N)c3cc(OC)c(OC)cc3n2)cc1
IC50 [7]: > 79 µM (inactive)
IC50 [8]: > 80 µM (inactive)

O=C1c2ccccc2C(=O)N1c1nc(Cc2ccccc2)n[nH]1
IC50 [9]: > 100 µM (not active)
IC50 [10]: > 100 µM (inactive)

O=C(CS(=O)(=O)Cc1ccccc1)N1CCc2ccccc21
EC50 (T-cell): 14.1 µM (active)

COc1ccc(C(=O)Nc2cc(OC)ccc2C(=O)O)cc1
IC50 (Hexokinase): > 25 µM (inactive)

Cc1ccc(C(=O)c2c3ccc(C(F)(F)F)cc3nn2CCC(N)=O)cc1
AC50 (Trypsin): > 100 µM (inactive)
AC50 (CAAX prenyl protease 2): 3.73 µM (active)
